Results taken from patent publication US9884832B2 (priority 2011, dated 2018).

What follows are compounds tested against AM2 S31 (wild-type serine at position 31 in the M2 protein), influenza virus A/Udorn/72 (Influenza A virus, UniProt P0DOF5) (assay: cell-based). Conditions: 100 uM; Xenopus oocytes; activity range class; read-out: S31 OOcyte Inhibition at 100 uM (%).
Chain of AM2 S31 (wild-type serine at position 31 in the M2 protein), influenza virus A/Udorn/72 (P0DOF5 whole entry, looked up): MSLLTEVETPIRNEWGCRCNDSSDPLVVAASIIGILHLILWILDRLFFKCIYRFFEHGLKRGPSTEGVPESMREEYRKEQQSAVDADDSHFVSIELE
Work on `Clc1ccc2[nH]c(CNC34CC5CC(CC(C5)C3)C4)nc2c1` [Example 181a, Adamantan-1-yl-(5-chloro-1H-benzoimidazol-2-ylmethyl)-amine] yielded an inhibition at 100 µM of 0 to 30%. `Cc1ncc(CN(Cc2cnc(C)s2)C23CC4CC(CC(C4)C2)C3)s1` [Example 202a, N,N-bis((2-methylthiazol-5-yl)methyl)adamantan-1-amine] showed an inhibition at 100 µM of 0 to 30%. With `c1coc(-c2cc(CNC34CC5CC(CC(C5)C3)C4)no2)c1` [Example 153a, N-((5-(furan-2-yl)isoxazol-3-yl)methyl)adamantan-1-amine] the inhibition at 100 µM was 0 to 30%. With `Cc1nc(-c2ccc(CNC34CC5CC(CC(C5)C3)C4)s2)cs1` [Example 156a, N-((5-(2-methylthiazol-4-yl)thiophen-2-yl)methyl)adamantan-1-amine] the inhibition at 100 µM was 0 to 30%. `COc1ccc2cc(CNC34CC5CC(CC(C5)C3)C4)ccc2c1` [Example 40a, Adamantan-1-yl-(6-methoxy-naphthalen-2-ylmethyl)-amine] gave an inhibition at 100 µM of 0 to 30%. Work on `c1csc(-c2ccc(CNC34CC5CC(CC(C5)C3)C4)nc2)c1` [Example 55a, Adamantan-1-yl-(5-thiophen-2-yl-pyridin-2-ylmethyl)-amine] yielded an inhibition at 100 µM of 31 to 95%. `CC(C)c1nc(CNC23CC4CC(CC(C4)C2)C3)no1` [Example 102a, N-((5-isopropyl-1,2,4-oxadiazol-3-yl)methyl)adamantan-1-amine] was tested, and the inhibition at 100 µM was 0 to 30%. With `c1ccc(Oc2ccc(CNC34CC5CC(CC(C5)C3)C4)cc2)cc1` [Example 13a, Adamantan-1-yl-(4-phenoxy-benzyl)-amine] the inhibition at 100 µM was 31 to 95%. Compound `Oc1ccc2[nH]c(CNC34CC5CC(CC(C5)C3)C4)cc2c1` [Example 179a] has an inhibition at 100 µM of 0 to 30%. `Brc1ncc(CNC23CC4CC(CC(C4)C2)C3)cn1` [Example 57a, N-((2-bromopyrimidin-5-yl)methyl)adamantan-1-amine] was tested, and the inhibition at 100 µM was 0 to 30%. Work on `c1c[nH]c(CNC23CC4CC(CC(C4)C2)C3)c1` [Example 72a, Adamantan-1-yl-(1H-pyrrol-2-ylmethyl)-amine] yielded an inhibition at 100 µM of 31 to 95%. With `Clc1ccc(/C=C/CNC23CC4CC(CC(C4)C2)C3)cc1` [Example 200a, N-((E)-3-(4-chlorophenyl)allyl)adamantan-1-amine] the inhibition at 100 µM was 0 to 30%. Compound `c1cc(-c2nc(CNC34CC5CC(CC(C5)C3)C4)no2)cs1` [Example 143a, N-((5-(thiophen-3-yl)-1,2,4-oxadiazol-3-yl)methyl)adamantan-1-amine] has an inhibition at 100 µM of 0 to 30%. `FC(F)(F)Oc1ccc(CNC23CC4CC(CC(C4)C2)C3)cc1` [Example 4a, Adamantan-1-yl-(4-trifluoromethoxy-benzyl)-amine] gave an inhibition at 100 µM of 0 to 30%. For `c1cc(-c2ccc(CNC34CC5CC(CC(C5)C3)C4)o2)[nH]n1` [Example 162a, N-((5-(1H-pyrazol-5-yl)furan-2-yl)methyl)adamantan-1-amine], the inhibition at 100 µM was 0 to 30%. With `COc1ccccc1COc1ccc(CNC23CC4CC(CC(C4)C2)C3)cc1` [Example 15a, Adamantan-1-yl-[4-(2-methoxy-benzyloxy)-benzyl]-amine] the inhibition at 100 µM was 0 to 30%. `Cc1cc(CNC23CC4CC(CC(C4)C2)C3)sc1Br` [Example 77a, N-((5-bromo-4-methylthiophen-2-yl)methyl)adamantan-1-amine] showed an inhibition at 100 µM of 31 to 95%. With `Cc1nc(CNC23CC4CC(CC(C4)C2)C3)no1` [Example 96a, N-((5-methyl-1,2,4-oxadiazol-3-yl)methyl)adamantan-1-amine] the inhibition at 100 µM was 31 to 95%. `c1c(CNC23CC4CC(CC(C4)C2)C3)noc1C1CC1` [Example 107a, N-((5-cyclopropylisoxazol-3-yl)methyl)adamantan-1-amine] showed an inhibition at 100 µM of 0 to 30%. `CC(C)(C)c1cc(CNC23CC4CC(CC(C4)C2)C3)[nH]n1` [Example 101a, N-((3-(tert-butyl)-1H-pyrazol-5-yl)methyl)adamantan-1-amine] gave an inhibition at 100 µM of 0 to 30%. Work on `Brc1cccc(CNC23CC4CC(CC(C4)C2)C3)c1` [Example 3a, N-(3-Bromobenzyl)adamantan-1-amine] yielded an inhibition at 100 µM of 31 to 95%. In the case of `OC12CC3CC(C1)CC(NCc1ccc(Cl)s1)(C3)C2` [Example 189a, 3-[(5-Chloro-thiophen-2-ylmethyl)-amino]adamantan-1-ol], the inhibition at 100 µM is reported as 0 to 30%. In the case of `CC(=O)c1ccc(CNC23CC4CC(CC(C4)C2)C3)cc1` [Example 44a], the inhibition at 100 µM is reported as 0 to 30%. `c1coc(-c2ccc(CNC34CC5CC(CC(C5)C3)C4)cc2)c1` [Example 31a, N-(4-(Furan-2-yl)benzyl)adamantan-1-amine] showed an inhibition at 100 µM of 0 to 30%. Work on `CC(C)(C)c1ccc(CNC23CC4CC(CC(C4)C2)C3)cc1` [Example 7a, N-(4-(tert-Butyl)benzyl)adamantan-1-amine methanesulfonate] yielded an inhibition at 100 µM of 0 to 30%. Work on `O=C1CCCN1c1ccc(CNC23CC4CC(CC(C4)C2)C3)cc1` [Example 45a, 1-(4-((adamantan-1-ylamino)methyl)phenyl)pyrrolidin-2-one] yielded an inhibition at 100 µM of 0 to 30%. With `c1coc(-c2ncc(CNC34CC5CC(CC(C5)C3)C4)cn2)c1` [Example 62a, N-((2-(furan-2-yl)pyrimidin-5-yl)methyl)adamantan-1-amine] the inhibition at 100 µM was 0 to 30%. In the case of `c1cn(-c2ccc(CNC34CC5CC(CC(C5)C3)C4)s2)cn1` [Example 161a, N-((5-(1H-imidazol-1-yl)thiophen-2-yl)methyl)adamantan-1-amine], the inhibition at 100 µM is reported as 0 to 30%. `c1ccc(-c2ncc(CNC34CC5CC(CC(C5)C3)C4)cn2)nc1` [Example 64a, N-((2-(pyridin-2-yl)pyrimidin-5-yl)methyl)adamantan-1-amine] was tested, and the inhibition at 100 µM was 0 to 30%.

Same assay, conditions: Table 1; 100 uM; Xenopus oocytes, pH 5.5, -20 mV; read-out: S31 OOcyte Inhibition at 100 uM (%)
`CC1(C)CCC(NCc2ccc(O)cc2O)CC1` [Example 108, 4-[(4,4-Dimethyl-cyclohexylamino)-methyl]-benzene-1,3-diol] was tested, and the inhibition at 100 µM was 31 to 95%. In the case of `OCC(Cc1cnc[nH]1)NCC12CC3CC(CC(C3)C1)C2` (stereo not drawn) [Example 2, 2-[(adamantan-1-ylmethyl)-amino]-3-(3H-imidazol-4-yl)-propan-1-ol], the inhibition at 100 µM is reported as 0 to 30%. For `COc1cc(O)ccc1CNC12CC3CC(CC(C3)C1)C2` [Example 56, 4-(Adamantan-1-ylaminomethyl)-3-methoxy-phenol], the inhibition at 100 µM was 0 to 30%. For `c1c(CNC2C3CC4CC(C3)CC2C4)nc2n1CCS2` (stereo not drawn) [Example 105, Adamantan-2-yl-(2,3-dihydro-imidazo[2,1-b]thiazol-6-ylmethyl)-amine], the inhibition at 100 µM was 31 to 95%. `c1cc(-c2nnn[nH]2)ccc1CNC12CC3CC(CC(C3)C1)C2` [Example 15, Adamantan-1-yl-[4-(1H-tetrazol-5-yl)-benzyl]amine] was tested, and the inhibition at 100 µM was 0 to 30%. `Oc1c(CNC23CC4CC(CC(C4)C2)C3)ccc2ccccc12` [Example 97, 2-(Adamantan-1-ylaminomethyl)-naphthalen-1-ol] showed an inhibition at 100 µM of 31 to 95%. `Oc1cc(F)c(CNC23CC4CC(CC(C4)C2)C3)c(F)c1` [Example 69, 4-(Adamantan-1-ylaminomethyl)-3,5-difluoro-phenol] showed an inhibition at 100 µM of 31 to 95%. `c1cc(COc2ccc(CNC34CC5CC(CC(C5)C3)C4)cc2)co1` [Example 22, Adamantan-1-yl-[4-(furan-3-ylmethoxy)-benzyl]-amine] was tested, and the inhibition at 100 µM was 31 to 95%. With `Oc1ccc(CNC23CC4CC(CC(C4)C2)C3)cc1Cl` [Example 47, 4-(Adamantan-1-ylaminomethyl)-2-chloro-phenol] the inhibition at 100 µM was 31 to 95%. Compound `Oc1c(F)cc(CNC23CC4CC(CC(C4)C2)C3)cc1Cl` [Example 68, 4-(Adamantan-1-ylaminomethyl)-2-chloro-6-fluoro-phenol] has an inhibition at 100 µM of 31 to 95%. In the case of `Nc1ncc(CNC23CC4CC(CC(C4)C2)C3)cn1` [Example 75, 5-(Adamantan-1-ylaminomethyl)-pyrimidin-2-ylamine], the inhibition at 100 µM is reported as 31 to 95%. For `NC(=O)COc1ccc(CNC23CC4CC(CC(C4)C2)C3)cc1` [Example 39, 2-(4-((Adamantan-1-ylamino)methyl)phenoxy)acetamide], the inhibition at 100 µM was 0 to 30%. `Oc1ccc(CNC2C3CC4CC(C3)CC2C4)c(O)c1` (stereo not drawn) [Example 100, 4-(Adamantan-2-ylaminomethyl)-benzene-1,3-diol] gave an inhibition at 100 µM of 31 to 95%. `CS(=O)(=O)c1ccc(CNC23CC4CC(CC(C4)C2)C3)cc1` [Example 25, Adamantan-1-yl-(4-methanesulfonyl-benzyl)-amine] showed an inhibition at 100 µM of 31 to 95%.

Same assay, conditions: Table 3; 100 uM; Xenopus oocytes, pH 5.5, -20 mV; read-out: S31 OOcyte Inhibition at 100 uM (%)
With `CSC(C)(C)Cc1cc(CNC23CC4CC(CC(C4)C2)C3)no1` [Example 46b, N-((5-(2-methyl-2-(methylthio)propyl)isoxazol-3-yl)methyl)adamantan-1-amine] the inhibition at 100 µM was 0 to 30%. In the case of `Brc1ccsc1CNC12CC3CC(CC(C3)C1)C2` [Example 47b, N-((3-Bromothiophen-2-yl)methyl)adamantan-1-amine], the inhibition at 100 µM is reported as 31 to 95%. `c1nc(N2CCCCC2)ncc1CNC12CC3CC(CC(C3)C1)C2` [Example 58b, N-((2-(piperidin-1-yl)pyrimidin-5-yl)methyl)adamantan-1-amine] gave an inhibition at 100 µM of 0 to 30%. With `CSc1ccccc1-c1cc(CNC23CC4CC(CC(C4)C2)C3)no1` [Example 42b, N-((5-(2-(methylthio)phenyl)isoxazol-3-yl)methyl)adamantan-1-amine] the inhibition at 100 µM was 0 to 30%. For `Clc1ccccc1-c1nc(CNC23CC4CC(CC(C4)C2)C3)no1` [Example 31b, N-((5-(2-chlorophenyl)-1,2,4-oxadiazol-3-yl)methyl)adamantan-1-amine], the inhibition at 100 µM was 0 to 30%. In the case of `COc1ccccc1-c1nc(CNC23CC4CC(CC(C4)C2)C3)no1` [Example 15b, N-((5-(2-methoxyphenyl)-1,2,4-oxadiazol-3-yl)methyl)adamantan-1-amine], the inhibition at 100 µM is reported as 0 to 30%. With `CC(C)(C)c1ccc(-c2ccc(CNC34CC5CC(CC(C5)C3)C4)s2)cc1` [Example 50b, N-((5-(4-(tert-Butyl)phenyl)thiophen-2-yl)methyl)adamantan-1-amine] the inhibition at 100 µM was 0 to 30%. `c1nc(N2CCOCC2)ncc1CNC12CC3CC(CC(C3)C1)C2` [Example 57b, N-((2-morpholinopyrimidin-5-yl)methyl)adamantan-1-amine] was tested, and the inhibition at 100 µM was 0 to 30%.
